Measurements as given in US20090325959A1 (priority 2008, published 2009).
pKi: −log10 of the molar value. Like-named read-outs stand apart in the source and are kept apart here.

Columns and labels:
[1] = biological target: T1, ROCK1 (Homo sapiens, UniProt Q13464); assay: Rho kinase inhibition assay (IMAP fluorescence polarization), ROCK1; type: biochemical;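 note: kinase reaction run 60 min at room temperature, then phosphorylated substrate captured on IMAP beads for 30 min, with fluorescence polarization read in mP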
T1 construct: purchased Upstate/Chemicon 14-601
T1 sequence (Q13464 17-535 limits assumed): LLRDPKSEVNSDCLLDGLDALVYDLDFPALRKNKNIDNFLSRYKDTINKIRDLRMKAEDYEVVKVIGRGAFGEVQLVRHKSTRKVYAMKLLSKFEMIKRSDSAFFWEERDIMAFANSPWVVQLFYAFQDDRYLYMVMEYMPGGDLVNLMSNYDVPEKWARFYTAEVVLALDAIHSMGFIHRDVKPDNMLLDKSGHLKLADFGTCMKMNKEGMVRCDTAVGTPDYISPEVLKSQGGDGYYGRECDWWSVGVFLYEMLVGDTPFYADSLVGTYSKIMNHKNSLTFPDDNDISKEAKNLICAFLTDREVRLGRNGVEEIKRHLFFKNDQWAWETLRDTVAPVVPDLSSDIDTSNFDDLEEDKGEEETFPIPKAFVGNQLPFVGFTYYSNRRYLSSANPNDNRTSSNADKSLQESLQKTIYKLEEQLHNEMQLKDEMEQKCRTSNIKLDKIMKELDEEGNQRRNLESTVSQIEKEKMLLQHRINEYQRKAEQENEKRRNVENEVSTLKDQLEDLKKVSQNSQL
Method: (§1) Following the pre-incubation, 10 μM ATP was added to initiate the reaction. After 60 minutes at room temperature, Molecular Devices IMAP™ binding solution was added to bind phosphorylated substrate. After 30 minutes of incubation in the presence of the IMAP™ beads, the fluorescence polarization was read and the ratio was reported as mP. IC50 values for compounds and EC50 values for ATP were calculated using the Prism software from Graphpad.

[2] = biological target: T2, ROCK2 (Homo sapiens, UniProt O75116); assay: Rho kinase inhibition assay (IMAP fluorescence polarization), ROCK2; type: biochemical;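 note: kinase reaction started with 10 µM ATP and run 60 min at room temperature, then phosphorylated substrate captured on IMAP beads for 30 min and fluorescence polarization read in mP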
T2 construct: purchased Upstate/Chemicon 14-451
T2 sequence (O75116 11-552 limits assumed): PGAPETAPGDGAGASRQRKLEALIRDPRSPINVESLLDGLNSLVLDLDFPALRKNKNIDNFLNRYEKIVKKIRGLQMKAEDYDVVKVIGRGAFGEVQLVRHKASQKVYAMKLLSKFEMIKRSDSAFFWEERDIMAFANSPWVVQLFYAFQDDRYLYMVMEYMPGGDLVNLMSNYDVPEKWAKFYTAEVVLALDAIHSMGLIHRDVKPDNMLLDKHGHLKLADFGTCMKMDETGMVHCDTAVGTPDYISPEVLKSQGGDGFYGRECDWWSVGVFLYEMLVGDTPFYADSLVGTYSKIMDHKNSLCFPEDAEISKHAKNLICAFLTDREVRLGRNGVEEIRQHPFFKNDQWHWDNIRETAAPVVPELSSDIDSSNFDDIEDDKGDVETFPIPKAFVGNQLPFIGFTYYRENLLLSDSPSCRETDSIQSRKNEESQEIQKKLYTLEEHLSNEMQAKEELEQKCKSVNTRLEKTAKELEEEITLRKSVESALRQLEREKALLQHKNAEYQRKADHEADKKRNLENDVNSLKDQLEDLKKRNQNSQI
Method: as §1

[3] = test system: A-10 rat thoracic aorta cells; assay: PDGF-stimulated smooth muscle cell proliferation assay (BrdU incorporation); type: cell-based; details: A-10 cells, 10 ng/mL PDGF, BrdU incorporation, percent of total challenge-stimulated proliferation; for Percent of PDGF Induced Proliferation at 1 μM Avg: 1 μM test compound; for Percent of PDGF Induced Proliferation at 10 μM Avg: 10 μM test compound;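 for all read-outs here: cells kept in serum-free medium, BrdU allowed to incorporate for 24 h, then incorporated label detected fluorometrically with an anti-BrdU antibody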
[4] = biological target: T3, Akt3 human enzyme (Homo sapiens, UniProt Q9Y243); assay: Akt3 inhibition assay (IMAP FP); type: biochemical;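 note: kinase reaction run 60 min at room temperature after 30 µM ATP start, phosphorylated substrate captured on IMAP beads and read as fluorescence polarization (mP)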
T3 construct: purchased Upstate Chemicon 14-502
T3 sequence (Q9Y243 whole entry): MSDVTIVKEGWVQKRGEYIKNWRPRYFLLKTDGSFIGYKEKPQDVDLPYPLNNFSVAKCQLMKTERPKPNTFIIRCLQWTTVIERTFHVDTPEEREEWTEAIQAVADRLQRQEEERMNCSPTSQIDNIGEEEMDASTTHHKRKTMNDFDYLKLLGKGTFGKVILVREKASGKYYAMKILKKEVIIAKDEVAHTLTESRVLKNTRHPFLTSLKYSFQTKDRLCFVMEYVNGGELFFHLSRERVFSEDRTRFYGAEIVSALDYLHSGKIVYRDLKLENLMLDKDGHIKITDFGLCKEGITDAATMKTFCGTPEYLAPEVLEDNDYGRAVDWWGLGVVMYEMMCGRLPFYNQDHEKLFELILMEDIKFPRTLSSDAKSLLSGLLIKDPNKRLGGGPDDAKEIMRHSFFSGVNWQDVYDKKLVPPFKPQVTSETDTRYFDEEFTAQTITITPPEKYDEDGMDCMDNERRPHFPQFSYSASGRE

[5] = biological target: T4, p70S6K human enzyme (Homo sapiens, UniProt P23443, T412E); assay: p70S6K inhibition assay (IMAP FP); type: biochemical;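 note: kinase reaction run at room temperature, phosphorylated substrate captured on IMAP beads and read as fluorescence polarization in mP, IC50 then converted to Ki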
T4 construct: purchased Upstate Chemicon 14-486
T4 sequence (P23443 1-421 T412E limits assumed): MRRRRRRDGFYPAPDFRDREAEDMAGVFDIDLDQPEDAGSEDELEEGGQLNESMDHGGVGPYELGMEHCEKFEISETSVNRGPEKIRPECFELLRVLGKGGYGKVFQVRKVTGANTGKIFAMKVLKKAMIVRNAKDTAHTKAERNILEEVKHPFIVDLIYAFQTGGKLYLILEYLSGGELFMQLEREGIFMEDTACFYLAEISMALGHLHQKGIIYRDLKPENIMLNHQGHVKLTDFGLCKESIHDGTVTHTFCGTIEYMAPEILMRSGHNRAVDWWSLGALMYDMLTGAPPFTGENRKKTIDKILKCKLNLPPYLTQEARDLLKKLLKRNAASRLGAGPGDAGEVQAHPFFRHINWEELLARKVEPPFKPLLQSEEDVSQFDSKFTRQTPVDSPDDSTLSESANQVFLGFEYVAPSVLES

[6] = Compound plasma concentrations in unsensitized mice at 15 min post administration; type: in vivo; details: mouse, 15 μmol/kg; mean compound plasma concentration in mice at 15 minutes post oral administration; read-out: Mouse Oral PK
[7] = 10 μM ATP, read-out: ROCK2 Ki, Avg
[8] = 30 μM ATP, Ki=IC50/(1+([ATP Challenge]/EC50 ATP)), read-out: Akt3 Ki, Avg
[9] = 30 μM ATP, Ki=IC50/(1+([ATP Challenge]/EC50 ATP)), read-out: p70S6K Ki, Avg
[10] = average Ki, read-out: p70S6K Ki

SMILES | pKi ([1]; Avg, 10 μM ATP) | pKi ([1]; average Ki) | pKi [2, 7] | pKi ([2]; average Ki, read-out: ROCK2 Ki) | Percent of PDGF Induced Proliferation at 1 μM Avg [3] | Percent of PDGF Induced Proliferation at 10 μM Avg [3] | pKi [4, 8] | pKi ([4]; average Ki, read-out: Akt3 Ki) | pKi [5, 9] | pKi [5, 10] | concentration at 15 min [6]
C#Cc1ccc(CN2CC[C@@H](Nc3cccc4cnccc34)C2)cc1 [Compound 2.031, (R)-N-(1-(4-ethynylbenzyl)pyrrolidin-3-yl)isoquinolin-5-amine] | 7.84 | 7.84 | 8.28 | 8.28 | 90.3% | 52.6% | 5.87 | 5.87 | 6.49 | 6.49 | 1430 nM
Clc1ccc(CN2CC[C@@H](Nc3cccc4cnccc34)C2)cc1 [Compound 2.027, (R)-N-(1-(4-chlorobenzyl)pyrrolidin-3-yl)isoquinolin-5-amine] | 7.80 |  | 8.13 |  | 79.4% | 64.4% | 6.18 |  | 6.29 |  | 
Cc1ccc(CN2CCC[C@@H](Nc3ccc4[nH]ncc4c3)C2)cc1O [Compound 1.173, (R)-5-((3-(1H-indazol-5-ylamino)piperidin-1-yl)methyl)-2-methylphenol] | 7.82 | 7.82 | 8.44 | 8.44 | 55.4% | 35.8% | 6.80 | 6.80 | 6.47 | 6.47 | 144 nM
Cc1ccc(CN2CCC[C@H](Nc3ccc4[nH]ncc4c3)C2)cc1O [Compound 1.151, (S)-5-((3-(1H-indazol-5-ylamino)piperidin-1-yl)methyl)2-methylphenol] | 7.64 |  | 8.54 |  | 51.0% | 63.8% | 6.15 |  | 6.28 |  | 
c1cc(N[C@@H]2CCN(Cc3ccc(C4CC4)cc3)C2)c2ccncc2c1 [Compound 2.022, (R)-N-(1-(4-cyclopropylbenzyl)pyrrolidin-3-yl)isoquinolin-5-amine] | 7.35 |  | 7.82 |  | 89.7% | 39.4% | 5.39 |  | 6.30 |  | 
c1cc(C2CC2)ccc1CN1CCC[C@@H](Nc2ccc3[nH]ncc3c2)C1 [Compound 1.206, (R)-N-(1-(4-cyclopropylbenzyl)piperidin-3-yl)-1H-indazol-5-amine] | 7.19 | 7.19 | 8.04 | 8.04 | 77.5% | 51.1% | 6.28 | 6.28 | 6.50 | 6.50 | 672 nM
CCS(=O)(=O)Nc1cc(CN2CCC[C@H](Nc3ccc4[nH]ncc4c3)C2)ccc1C [Compound 1.253, (S)-N-(5-((3-(1H-indazol-5-ylamino)piperidin-1-yl)methyl)-2-methylphenyl)ethanesulfonamide] | 7.22 | 7.22 | 8.77 | 8.77 | 44.8% | 47.9% | 5.59 | 5.59 | 5.60 | 5.60 | 240 nM
CC(C)c1ccc(CN2CCC[C@H](Nc3ccc4[nH]ncc4c3)C2)cc1 [Compound 1.180, (S)-N-(1-(4-isopropylbenzyl)piperidin-3-yl)-1H-indazol-5-amine] | 6.86 |  | 7.64 |  | 92.4% | 64.8% | 4.92 |  | 5.99 |  | 
CC(C)c1ccc(CN2CCC[C@@H](Nc3ccc4[nH]ncc4c3)C2)cc1 [Compound 1.204, (R)-N-(1-(4-isopropylbenzyl)piperidin-3-yl)-1H-indazol-5-amine] | 6.71 |  | 7.50 |  | 79.3% | 42.8% | 5.72 |  | 6.03 |  | 
CSc1ccc(CN2CCCC(Nc3cccc4cnccc34)C2)cc1 (stereo not drawn) [Compound 2.009, N-(1-(4-(methylthio)benzyl)piperidin-3-yl)isoquinolin-5-amine] |  |  |  |  | 128.9% | 56.5% | 5.43 |  | 5.89 |  | 
